According to ChEMBL document CHEMBL1240398, “Surveillance and correlation of antibiotic prescription and resistance of Gram-negative bacteria in Singaporean hospitals” (2010):

Columns and labels:
Type in all cases: functional
Escherichia coli [1] = assay: Antimicrobial activity against Escherichia coli clinical isolate assessed as resistance isolates by disk diffusion method
Escherichia coli [2] = assay: Antimicrobial activity against Escherichia coli isolate obtained from patient's blood assessed as resistance isolates by disk diffusion method
Klebsiella pneumoniae [3] = assay: Antimicrobial activity against Klebsiella pneumoniae clinical isolate assessed as resistance isolates by disk diffusion method
Klebsiella pneumoniae [4] = assay: Antimicrobial activity against Klebsiella pneumoniae isolate obtained from patient's blood assessed as resistance isolates by disk diffusion method
Acinetobacter sp. [5] = assay: Antimicrobial activity against Acinetobacter sp. clinical isolate assessed as resistance isolates by disk diffusion method
Acinetobacter sp. [6] = assay: Antimicrobial activity against Acinetobacter sp. isolate obtained from patient's blood assessed as resistance isolates by disk diffusion method
Pseudomonas aeruginosa [7] = assay: Antimicrobial activity against Pseudomonas aeruginosa clinical isolate assessed as resistance isolates by disk diffusion method
Pseudomonas aeruginosa [8] = assay: Antimicrobial activity against Pseudomonas aeruginosa isolate obtained from patient's blood assessed as resistance isolates by disk diffusion method

SMILES | Activity (Escherichia coli [1]) | Activity (Escherichia coli [2]) | Activity (Klebsiella pneumoniae [3]) | Activity (Klebsiella pneumoniae [4]) | Activity (Acinetobacter sp. [5]) | Activity (Acinetobacter sp. [6]) | Activity (Pseudomonas aeruginosa [7]) | Activity (Pseudomonas aeruginosa [8])
CO/N=C(\C(=O)N[C@@H]1C(=O)N2C(C(=O)O)=C(CSc3nc(=O)c(O)nn3C)CS[C@H]12)c1csc(N)n1 [CEFTRIAXONE] | 20% | 21.7% | 32.3% | 27.4% | – | – | – | –
O=C(O)c1cn(C2CC2)c2cc(N3CCNCC3)c(F)cc2c1=O [CIPROFLOXACIN] | – | 31% | – | 24% | – | – | – | –
C[C@@H](O)[C@H]1C(=O)N2C(C(=O)O)=C(SCCNC=N)C[C@H]12 [IMIPENEM ANHYDROUS] | – | – | – | – | 46.2% | 50% | 7.5% | 12.8%
